Molecules are shown by their SMILES.

In the test the target is T1, cholesteryl ester transfer protein (CETP) (Homo sapiens, UniProt P11597).
T1 construct: the source of CETP was human lipoprotein-deprived serum (LPDS); from tissue; host or cells: human lipoprotein-deprived serum (LPDS)
T1 sequence (P11597 18-493): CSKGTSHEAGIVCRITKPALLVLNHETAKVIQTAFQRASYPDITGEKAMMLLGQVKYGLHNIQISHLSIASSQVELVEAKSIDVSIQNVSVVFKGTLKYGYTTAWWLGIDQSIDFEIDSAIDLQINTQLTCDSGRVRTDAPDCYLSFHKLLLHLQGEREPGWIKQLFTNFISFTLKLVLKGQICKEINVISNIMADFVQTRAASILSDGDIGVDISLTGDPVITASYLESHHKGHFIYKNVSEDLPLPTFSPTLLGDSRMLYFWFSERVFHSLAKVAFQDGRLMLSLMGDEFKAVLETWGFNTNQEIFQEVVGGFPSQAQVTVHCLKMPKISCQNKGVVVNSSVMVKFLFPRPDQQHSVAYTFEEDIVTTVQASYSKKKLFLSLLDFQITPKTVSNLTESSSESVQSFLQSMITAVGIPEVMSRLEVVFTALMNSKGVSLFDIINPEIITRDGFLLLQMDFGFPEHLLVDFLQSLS
In words: CETP inhibition SPA assay in the presence of plasma (CETP source human lipoprotein-deprived serum). The class given is biochemical. The note with it: source of CETP human lipoprotein-deprived serum (LPDS), radiolabeled cholesteryl ester transfer HDL to LDL. On the procedure:
Activity of CETP inhibitors was determined using a buffer assay system. Partially purified CETP transferred radiolabeled cholesteryl ester from HDL donor particles to biotin-labeled LDL acceptor particles. The reaction was stopped by addition of streptavidin-coupled scintillation proximity assay (SPA) beads. These beads captured the biotinylated acceptor particles and transferred radioactivity was measured. The assay system was purchased and performed according to manufacturer's recommendations (Amersham Biosciences). Inhibitory activity of compounds was determined as percentage of positive control activity containing CETP together with donor and acceptor particles. Serial dilution of compounds was performed in order to determine the IC50 values.
Activity of the compounds was subsequently measured in the presence of plasma using the same assay as described above except that the source of CETP was human lipoprotein-deprived serum (LPDS). Inhibitory activity of compounds was determined as percentage of positive control activity containing all the assay components except compound. Serial dilution of compounds was performed in order to determine the IC50 values.
For orientation: IC50 means the midpoint of a concentration-inhibition curve. On to `O=C(c1cc(Cl)cc2cc[nH]c12)N(CCc1ccc(Cl)c(Cl)c1)Cc1cc2ccccc2o1` [Compound 1, 5-chloro-1H-indole-7-carboxylic acid benzofuran-2-ylmethyl-[2-(3,4-dichloro-phenyl)-ethyl]-amide], for which the 50% inhibitory concentration (IC50) was found to be 7020 nM. The value for `CNc1cnc(Cl)cc1C(=O)N(CCc1ccc(Cl)c(Cl)c1)Cc1ccc(C(C)(C)C)nc1` [Compound 38, N-(6-tert-butyl-pyridin-3-ylmethyl)-2-chloro-N-[2-(3,4-dichloro-phenyl)-ethyl]-5-methylamino-isonicotinamide] was 282 nM; that for `CNc1ncc(Cl)cc1C(=O)N(CCc1cccc(C(F)(F)F)c1)Cc1ccc(C(C)(C)C)s1` [Compound 53, N-(5-tert-butyl-thiophen-2-ylmethyl)-5-chloro-2-methylamino-N-[2-(3-trifluoromethyl-phenyl)-ethyl]-nicotinamide] was 56 nM.

The record behind these values is patent publication US7674815B2, “Heteroaryl and benzyl amide compounds” (Hoffmann-La Roche Inc., priority 2006, dated 2010).
